Source: patent US20210045385A1, “PYRIDAZINONE-SUBSTITUTED KETOXIMES AS HERBICIDES” (FMC Corporation, priority 2018, published 2021)

What was measured:
Assay type in all cases: in vivo
rice (Oryza sativa) = assay: Test D flooded paddy test, visual plant response rating; conditions: 250 g ai/ha, scale 0 to 100 (0 no effect, 100 complete control), 13 to 15 d
Experimental: (§1) Plant species in the flooded paddy test selected from rice (Oryza sativa), sedge umbrella (small-flower umbrella sedge, Cyperus difformis) duck salad (Heteranthera limosa), and barnyardgrass (Echinochloa crus-galli) were grown to the 2-leaf stage for testing. At time of treatment, test pots were flooded to 3 cm above the soil surface, treated by application of test compounds directly to the paddy water, and then maintained at that water depth for the duration of the test. Treated plants and controls were maintained in a greenhouse for 13 to 15 d, after which time all species were compared to controls and visually evaluated. Plant response ratings, summarized in Table D, are based on a scale of 0 to 100 where 0 is no effect and 100 is complete control. A dash (-) response means no test result.

[1] = tested on: barnyardgrass (Echinochloa crus-galli); assay: as above; conditions: 250 g ai/ha, scale 0 to 100 (0 no effect, 100 complete control), 13 to 15 d
Experimental: as §1

[2] = tested on: duck salad (Heteranthera limosa); assay: as above; conditions: 250 g ai/ha, scale 0 to 100 (0 no effect, 100 complete control), 13 to 15 d
Experimental: as §1

[3] = tested on: sedge umbrella (small-flower umbrella sedge, Cyperus difformis); assay: as above; conditions: 250 g ai/ha, scale 0 to 100 (0 no effect, 100 complete control), 13 to 15 d
Experimental: as §1

corn (Zea mays) = assay: Test C postemergence, visual plant response rating
Source text: (§2) Seeds of plant species selected from barnyardgrass (Echinochloa crus-galli), kochia (Bassia scoparia), ragweed (common ragweed, Ambrosia artemisiifolia), Italian ryegrass (Lolium mutiflorum), foxtail, giant (giant foxtail, Setaria faberi), foxtail, green (green foxtail, Setaria viridis), and pigweed (Amaranthus retroflexus) were planted into a blend of loam soil and sand and treated preemergence with a directed soil spray using test chemicals formulated in anon-phytotoxic solvent mixture which included a surfactant.
(§3) At the same time, plants selected from these weed species and also wheat (Triticum aestivum), corn (Zea mays), blackgrass (Alopecurus myosuroides), and galium (catchweed bedstraw, Galium aparine) were planted in pots containing the same blend of loam soil and sand and treated with post emergence applications of test chemicals formulated in the same manner. Plants ranged in height from 2 to 10 cm and were in the one- to two-leaf stage for the postemergence treatment. Treated plants and untreated controls were maintained in a greenhouse for approximately 10 d, after which time all treated plants were compared to untreated controls and visually evaluated for injury. Plant response ratings, summarized in Table C, are based on a 0 to 100 scale where 0 is no effect and 100 is complete control. A dash (-)response means no test result.

[4] = tested on: ragweed (common ragweed, Ambrosia artemisiifolia); assay: Test C postemergence, visual plant response rating
Source text: as §2, §3

[5] = tested on: pigweed (Amaranthus retroflexus); assay: Test C postemergence, visual plant response rating
Source text: as §2, §3

[6] = tested on: Italian ryegrass (Lolium mutiflorum); assay: Test C postemergence, visual plant response rating
Source text: as §2, §3

[7] = tested on: galium (catchweed bedstraw, Galium aparine); assay: Test C postemergence, visual plant response rating
Source text: as §2, §3

[8] = tested on: wheat (Triticum aestivum); assay: Test C postemergence, visual plant response rating
Source text: as §2, §3

kochia (Bassia scoparia) [9] = assay: Test C postemergence, visual plant response rating
Source text: as §2, §3

[10] = tested on: barnyardgrass (Echinochloa crus-galli); assay: Test C postemergence, visual plant response rating
Source text: as §2, §3

[11] = tested on: foxtail, giant (giant foxtail, Setaria faberi); assay: Test C postemergence, visual plant response rating
Source text: as §2, §3

[12] = tested on: blackgrass (Alopecurus myosuroides); assay: Test C postemergence, visual plant response rating
Source text: as §2, §3

[13] = tested on: pigweed (Amaranthus retroflexus); assay: Test C preemergence, visual plant response rating
Source text: as §2, §3

[14] = tested on: Italian ryegrass (Lolium mutiflorum); assay: Test C preemergence, visual plant response rating
Source text: as §2, §3

kochia (Bassia scoparia) [15] = assay: Test C preemergence, visual plant response rating
Source text: as §2, §3

[16] = tested on: barnyardgrass (Echinochloa crus-galli); assay: Test C preemergence, visual plant response rating
Source text: as §2, §3

[17] = tested on: foxtail, giant (giant foxtail, Setaria faberi); assay: Test C preemergence, visual plant response rating
Source text: as §2, §3

[18] = Test C, postemergence, 125 g ai/ha
[19] = Test C, 31 g ai/ha, 0 is no effect, 100 is complete control

SMILES	Plant response rating, Rice (Flood) (rice (Oryza sativa))	Plant response rating, Barnyardgrass (Flood) [1]	Plant response rating, Ducksalad (Flood) [2]	Plant response rating, Sedge, Umbrella (Flood) [3]	Corn plant response rating (0 to 100 scale) (corn (Zea mays); Postemergence, 31 g ai/ha)	Corn plant response rating (0 to 100 scale) (corn (Zea mays); [18])	Ragweed plant response rating (0 to 100 scale) ([4]; Postemergence, 31 g ai/ha)	Ragweed plant response rating (0 to 100 scale) [4, 18]	Pigweed plant response rating (0 to 100 scale) ([5]; Postemergence, 31 g ai/ha)	Pigweed plant response rating (0 to 100 scale) [5, 18]	Ryegrass, Italian plant response rating (0 to 100 scale) ([6]; Postemergence, 31 g ai/ha)	Ryegrass, Italian plant response rating (0 to 100 scale) [6, 18]	Galium plant response rating (0 to 100 scale) ([7]; Postemergence, 31 g ai/ha)	Galium plant response rating (0 to 100 scale) [7, 18]	Wheat plant response rating (0 to 100 scale) ([8]; Postemergence, 31 g ai/ha)	Wheat plant response rating (0 to 100 scale) [8, 18]	Kochia plant response rating (0 to 100 scale) (kochia (Bassia scoparia) [9]; Postemergence, 31 g ai/ha)	Kochia plant response rating (0 to 100 scale) (kochia (Bassia scoparia) [9]; [18])	Barnyardgrass plant response rating (0 to 100 scale) ([10]; Postemergence, 31 g ai/ha)	Barnyardgrass plant response rating (0 to 100 scale) [10, 18]	other results
CCCCO/N=C(\c1cc(Cl)cc(Cl)c1Cl)c1c(O)c(C)nn(C)c1=O [Compound 183]	0	0	0	0	0	0	20	100	0	10	40	60	10	30	0	0	0	10	0	40	Foxtail, Giant plant response rating (0 to 100 scale) ([11]; Postemergence, 31 g ai/ha): 30; Foxtail, Giant plant response rating (0 to 100 scale) [11, 18]: 80; Blackgrass plant response rating (0 to 100 scale) ([12]; Postemergence, 31 g ai/ha): 0; Blackgrass plant response rating (0 to 100 scale) [12, 18]: 0; Pigweed plant response rating (0 to 100 scale) ([13]; 125 g ai/ha): 10; Pigweed plant response rating (0 to 100 scale) [13, 19]: 0; Ryegrass, Italian plant response rating (0 to 100 scale) ([14]; 125 g ai/ha): 80; Ryegrass, Italian plant response rating (0 to 100 scale) [14, 19]: 0; Kochia plant response rating (0 to 100 scale) (kochia (Bassia scoparia) [15]; 125 g ai/ha): 0; Kochia plant response rating (0 to 100 scale) (kochia (Bassia scoparia) [15]; [19]): 0; Barnyardgrass plant response rating (0 to 100 scale) ([16]; 125 g ai/ha): 70; Barnyardgrass plant response rating (0 to 100 scale) [16, 19]: 0; Foxtail, Giant plant response rating (0 to 100 scale) ([17]; 125 g ai/ha): 100; Foxtail, Giant plant response rating (0 to 100 scale) [17, 19]: 40
C#CCO/N=C(\c1cc(Cl)cc(Cl)c1Cl)c1c(O)c(C)nn(C)c1=O [Compound 184]	0	0	0	0	0	10	60	100	10	20	0	80	60	90	0	0	10	10	50	60	Foxtail, Giant plant response rating (0 to 100 scale) ([11]; Postemergence, 31 g ai/ha): 60; Foxtail, Giant plant response rating (0 to 100 scale) [11, 18]: 80; Blackgrass plant response rating (0 to 100 scale) ([12]; Postemergence, 31 g ai/ha): 0; Blackgrass plant response rating (0 to 100 scale) [12, 18]: 0; Pigweed plant response rating (0 to 100 scale) ([13]; 125 g ai/ha): 60; Pigweed plant response rating (0 to 100 scale) [13, 19]: 50; Ryegrass, Italian plant response rating (0 to 100 scale) ([14]; 125 g ai/ha): 100; Ryegrass, Italian plant response rating (0 to 100 scale) [14, 19]: 0; Kochia plant response rating (0 to 100 scale) (kochia (Bassia scoparia) [15]; 125 g ai/ha): 0; Kochia plant response rating (0 to 100 scale) (kochia (Bassia scoparia) [15]; [19]): 0; Barnyardgrass plant response rating (0 to 100 scale) ([16]; 125 g ai/ha): 90; Barnyardgrass plant response rating (0 to 100 scale) [16, 19]: 0; Foxtail, Giant plant response rating (0 to 100 scale) ([17]; 125 g ai/ha): 100; Foxtail, Giant plant response rating (0 to 100 scale) [17, 19]: 60
Cc1nn(C)c(=O)c(/C(=N/OC(C)C)c2cc(Cl)cc(Cl)c2Cl)c1O [Compound 185]	60	45	85	95	0	20	90	100	40	100	70	100	70	100	50	80	10	50	10	60	Foxtail, Giant plant response rating (0 to 100 scale) ([11]; Postemergence, 31 g ai/ha): 60; Foxtail, Giant plant response rating (0 to 100 scale) [11, 18]: 90; Blackgrass plant response rating (0 to 100 scale) ([12]; Postemergence, 31 g ai/ha): 10; Blackgrass plant response rating (0 to 100 scale) [12, 18]: 30; Pigweed plant response rating (0 to 100 scale) ([13]; 125 g ai/ha): 100; Pigweed plant response rating (0 to 100 scale) [13, 19]: 70; Ryegrass, Italian plant response rating (0 to 100 scale) ([14]; 125 g ai/ha): 100; Ryegrass, Italian plant response rating (0 to 100 scale) [14, 19]: 10; Kochia plant response rating (0 to 100 scale) (kochia (Bassia scoparia) [15]; 125 g ai/ha): 50; Kochia plant response rating (0 to 100 scale) (kochia (Bassia scoparia) [15]; [19]): 0; Barnyardgrass plant response rating (0 to 100 scale) ([16]; 125 g ai/ha): 70; Barnyardgrass plant response rating (0 to 100 scale) [16, 19]: 0; Foxtail, Giant plant response rating (0 to 100 scale) ([17]; 125 g ai/ha): 100; Foxtail, Giant plant response rating (0 to 100 scale) [17, 19]: 90
CCO/N=C(\c1cc(Cl)cc(Cl)c1Cl)c1c(O)c(C)nn(C)c1=O [Compound 186]	0	0	0	0	0	20	50	90	20	90	80	100	90	100	20	70	50	50	30	70	Foxtail, Giant plant response rating (0 to 100 scale) ([11]; Postemergence, 31 g ai/ha): 60; Foxtail, Giant plant response rating (0 to 100 scale) [11, 18]: 90; Blackgrass plant response rating (0 to 100 scale) ([12]; Postemergence, 31 g ai/ha): 10; Blackgrass plant response rating (0 to 100 scale) [12, 18]: 20; Pigweed plant response rating (0 to 100 scale) ([13]; 125 g ai/ha): 100; Pigweed plant response rating (0 to 100 scale) [13, 19]: 50; Ryegrass, Italian plant response rating (0 to 100 scale) ([14]; 125 g ai/ha): 100; Ryegrass, Italian plant response rating (0 to 100 scale) [14, 19]: 40; Kochia plant response rating (0 to 100 scale) (kochia (Bassia scoparia) [15]; 125 g ai/ha): 0; Kochia plant response rating (0 to 100 scale) (kochia (Bassia scoparia) [15]; [19]): 0; Barnyardgrass plant response rating (0 to 100 scale) ([16]; 125 g ai/ha): 90; Barnyardgrass plant response rating (0 to 100 scale) [16, 19]: 40; Foxtail, Giant plant response rating (0 to 100 scale) ([17]; 125 g ai/ha): 100; Foxtail, Giant plant response rating (0 to 100 scale) [17, 19]: 100
